US10150780B2, “Spirocyclic heterocycle compounds useful as HIV integrase inhibitors” (Merck Sharp & Dohme Corp., priority 2014, dated 2018)
Like-named read-outs stand apart in the source and are kept apart here.

Test system: HIV-1 (NL4-3 strain)
Assay: Assay for Inhibition of HIV Replication (VIKING), infected MT4-GFP cells
Assay type: cell-based
Conditions: infected cells at 48 h / 24 h
Method: MT4-GFP cells (250,000 cells/ml) were bulk-infected with HIV-1 (NL4-3 strain) at low multiplicity of infection (MOI) in RPMI+10% FBS for 24 hours. Cells were then washed once in RPMI+10% FBS and resuspended RPMI+0% or +100% normal human serum (NHS). Test compounds were serial-diluted in DMSO on ECHO. The infected MT4-GFP cells were added to a 384-well poly-D-lysine coated black plate with clear bottom in which the diluted test compounds were placed. The cells were seeded at 8,000 cells per well and the final DMSO concentration was 0.4%. The infected cells (Green GFP cells) were quantified at both 24 and 48 hours post incubation using Acumen eX3. Viral reproductive ratio (R0) was determined using the number of infected cells at 48 hours divided by the number of infected cells at 24 hours. Percent viral growth inhibition was calculated by [1−(R−Rtripledrug)/(RDMSO−Rtripledrug)]*100.

[1] = Human immunodeficiency virus 1, NL43, 48 h, MT4-GFP cells infected with HIV-1 NL4-3, RPMI + 0% normal human serum, read-out: VIKING IP50 (nM) with 0% NHS
[2] = MT4-GFP cells infected with HIV-1 NL4-3, RPMI + 100% normal human serum, read-out: VIKING IP50 (nM) with 100% NHS
[3] = MT4-GFP cells infected with HIV-1 NL4-3, RPMI + 0% normal human serum, read-out: VIKING IP50 (nM) with 0% NHS
[4] = Human immunodeficiency virus 1, NL43, MT4-GFP cells infected with HIV-1 NL4-3, RPMI + 100% normal human serum, read-out: VIKING IP50 (nM) with 100% NHS

| SMILES | IC50 [1] | IC50 [2] | IC50 [3] | IC50 [4] |
| --- | --- | --- | --- | --- |
| COC1N(N(C)C)C(=O)c2c(O)c(=O)c(C(=O)NCc3ccc(F)cc3F)cn2C12CC2 (single isomer, unassigned) [Compound 1] | 1.9 nM | > 8000 nM |  |  |
| COC1N(N(C)C)C(=O)c2c(O)c(=O)c(C(=O)NCc3ccc(F)cc3F)cn2C12CC2 (single isomer, unassigned) [Compound 2] |  | 153 nM | 1.7 nM |  |
| O=C(NCc1ccc(F)cc1F)c1cn2c(c(O)c1=O)C(=O)N1CCCOC1C21CC1 (single isomer, unassigned) [Compound 3] | 0.6 nM | 3370 nM |  |  |
| O=C(NCc1ccc(F)cc1F)c1cn2c(c(O)c1=O)C(=O)N1CCCOC1C21CC1 (single isomer, unassigned) [Compound 4] |  | 285 nM | 0.5 nM |  |
| O=C(NCc1cccc(Cl)c1F)c1cn2c(c(O)c1=O)C(=O)N1CCCOC1C21CC1 (single isomer, unassigned) [Compound 5] | 0.8 nM | > 8000 nM |  |  |
| O=C(NCc1cccc(Cl)c1F)c1cn2c(c(O)c1=O)C(=O)N1CCCOC1C21CC1 (single isomer, unassigned) [Compound 6] |  | 505 nM | 0.6 nM |  |
| O=C(NCc1cccc(Cl)c1F)c1cn2c(c(O)c1=O)C(=O)N1CCOC1C21CC1 (single isomer, unassigned) [Compound 10] | 0.4 nM | 3900 nM |  |  |
| O=C(NCc1cccc(Cl)c1F)c1cn2c(c(O)c1=O)C(=O)N1CCOC1C21CC1 (single isomer, unassigned) [Compound 11] |  | > 8000 nM | 0.4 nM |  |
| O=C(NCc1cccc(Cl)c1F)c1cn2c(c(O)c1=O)C(=O)N1CCCCOC1C21CC1 (single isomer, unassigned) [Compound 12] |  | 92.3 nM | 0.5 nM |  |
| O=C(NCc1cccc(Cl)c1F)c1cn2c(c(O)c1=O)C(=O)N1CCCCOC1C21CC1 (single isomer, unassigned) [Compound 13] |  | 4100 nM | 1.3 nM |  |
| CN1CCCN2C(=O)c3c(O)c(=O)c(C(=O)NCc4cccc(Cl)c4F)cn3C3(CC3)C12 (single isomer, unassigned) [Compound 14] | 1 nM | 2340 nM |  |  |
| CN1CCCN2C(=O)c3c(O)c(=O)c(C(=O)NCc4cccc(Cl)c4F)cn3C3(CC3)C12 (single isomer, unassigned) [Compound 15] |  | 71.5 nM | 0.6 nM |  |
| CN(C)N1CC2(COC2)n2cc(C(=O)NCc3ccc(F)cc3F)c(=O)c(O)c2C1=O [Compound 7] | 4 nM |  |  | 1280 nM |
| CN(C)N1CC2(CCOCC2)n2cc(C(=O)NCc3ccc(F)cc3F)c(=O)c(O)c2C1=O [Compound 8] | 19 nM |  |  | 1510 nM |
| COC1N(N(C)C)C(=O)c2c(O)c(=O)c(C(=O)NCc3ccc(F)cc3F)cn2C12COC2 (stereo not drawn) [Compound 9] | 7 nM |  |  | 235 nM |
